In PubChem BioAssay (NCI) one finds GI50 and TGI data, which are given here for ten compounds.

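1) Cells in 96-well plates. 2) Compound, 48 h, 5 concentrations. 3) Linear interpolation between surrounding doses. 4) Unreached endpoint = highest concentration. Abbreviation: GI50, concentration required for 50% inhibition of growth. TGI: concentration producing complete growth inhibition.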

Some test systems named below: HOP-62 NSCLC; IGROV1 ovarian; LOX IMVI melanoma; OVCAR-3 ovarian; OVCAR-4 ovarian; OVCAR-5 ovarian; SK-OV-3 ovarian; EKVX NSCLC.
Holding throughout (test): NCI tumour cell line growth inhibition, 48 h

As for `COc1cc[nH]c1/C=C1\C(=O)Nc2ccc([N+](=O)[O-])c(N3CC[C@@H](O)C3)c21`, the GI50 in the test with HOP-62 NSCLC was 0.181 µM; in the test with IGROV1 ovarian, 0.467 µM; with LOX IMVI melanoma it was 0.0923 µM; in the test with OVCAR-3 ovarian it was 0.131 µM; in the test with OVCAR-4 ovarian, 0.488 µM; in the test on OVCAR-5 ovarian, 0.258 µM. Also, the GI50 in the test on SK-OV-3 ovarian was 0.631 µM. Further, the TGI in the test with HOP-62 NSCLC is 1.88 µM; in the test on IGROV1 ovarian, 4.27 µM; in the test with LOX IMVI melanoma, 1.41 µM; with OVCAR-3 ovarian it was 1.59 µM; in the test on OVCAR-4 ovarian it was 2.14 µM; with OVCAR-5 ovarian, 3.97 µM. In the test on SK-OV-3 ovarian, the TGI is 8.16 µM.
Consider `COc1ccc(S(=O)(=O)N/N=C/CN2C(=O)c3ccccc3C2=O)cc1`, for which the TGI in the test with EKVX NSCLC, in the test on HOP-62 NSCLC, in the test on IGROV1 ovarian, in the test with LOX IMVI melanoma and with OVCAR-4 ovarian was more than 100 µM in each case.
Take `O=C(CN1CCN(c2ccccn2)CC1)Nc1ccc(Cl)cc1C(=O)c1ccccc1Cl`: the GI50 was 45.4 µM in the test on EKVX NSCLC; 89.2 µM in the test on IGROV1 ovarian; 41.6 µM with LOX IMVI melanoma; 13.9 µM in the test on OVCAR-4 ovarian; more than 100 µM in the test with OVCAR-5 ovarian; more than 100 µM in the test on SK-OV-3 ovarian. For the same compound, the TGI in the test with EKVX NSCLC, in the test on IGROV1 ovarian, in the test on LOX IMVI melanoma, in the test on OVCAR-4 ovarian, in the test with OVCAR-5 ovarian and in the test with SK-OV-3 ovarian was more than 100 µM each time.
With `CNCC1CCn2c(c(C3=C(c4cn(C)c5ccccc45)C(=O)NC3=O)c3ccccc32)C1` (stereo not drawn), the GI50 in the test with HOP-62 NSCLC was 3.62 µM; in the test with IGROV1 ovarian, 4.14 µM; in the test on LOX IMVI melanoma it was 3.84 µM; in the test on OVCAR-3 ovarian, 3.98 µM; in the test with OVCAR-4 ovarian it was 4.17 µM; in the test with OVCAR-5 ovarian it was 3.07 µM. Moreover, the GI50 with SK-OV-3 ovarian was 5.18 µM. For the same compound, the TGI with HOP-62 NSCLC turned out to be 9.99 µM; with IGROV1 ovarian it was 9.9 µM; in the test with LOX IMVI melanoma, 7.4 µM; with OVCAR-3 ovarian, 8.97 µM; in the test with OVCAR-4 ovarian, 15.5 µM; with OVCAR-5 ovarian it was 20.9 µM. The TGI with SK-OV-3 ovarian was found to be 16.4 µM.
As for `COc1cc(OC)c2c(c1Cl)O[C@]1(C2=O)C(OCc2ccccc2)=CC(=O)C[C@H]1C`, the GI50 in the test on HOP-62 NSCLC is 1.36 µM; with IGROV1 ovarian, 2.79 µM; in the test with OVCAR-3 ovarian it was 0.986 µM; with OVCAR-4 ovarian it was 7.16 µM; with OVCAR-5 ovarian, 1.83 µM; in the test on SK-OV-3 ovarian, 1.29 µM. Moreover, the TGI was 62.2 µM in the test on HOP-62 NSCLC; 79.6 µM in the test on IGROV1 ovarian; 11.4 µM in the test on OVCAR-3 ovarian; 73.3 µM in the test on OVCAR-4 ovarian; more than 100 µM in the test on OVCAR-5 ovarian; 7.75 µM in the test on SK-OV-3 ovarian.
Turning to `COc1ccc2c(c1)O/C(=C\c1ccc([N+](=O)[O-])s1)C2=O`, the GI50 was 8.11 µM in the test with HOP-62 NSCLC, 1.14 µM in the test on IGROV1 ovarian, 1.59 µM in the test on OVCAR-4 ovarian and more than 22.7 µM in the test with SK-OV-3 ovarian. For the same compound, the TGI in the test with HOP-62 NSCLC was more than 31.6 µM; in the test with OVCAR-4 ovarian, 4.91 µM; with SK-OV-3 ovarian, more than 62.7 µM.
In the case of `Nc1nc(N)c(-c2ccc(Cl)cc2)c(/C=C/c2ccc([N+](=O)[O-])cc2)n1`, the GI50 is 11.9 µM in the test on HOP-62 NSCLC; 5.35 µM with IGROV1 ovarian; 4.52 µM with LOX IMVI melanoma; 5.76 µM in the test on OVCAR-3 ovarian; 4.54 µM with OVCAR-4 ovarian; 38.2 µM in the test on OVCAR-5 ovarian. Moreover, the GI50 with SK-OV-3 ovarian is 19.2 µM. In addition, the TGI was 31.1 µM in the test with HOP-62 NSCLC; 52.9 µM in the test on IGROV1 ovarian; more than 100 µM with LOX IMVI melanoma; 31.1 µM with OVCAR-3 ovarian; more than 100 µM in the test with OVCAR-4 ovarian; more than 100 µM with OVCAR-5 ovarian. Besides, the TGI with SK-OV-3 ovarian was found to be 56.4 µM.
Regarding `COc1cc2c3c(n(CCCN4CCN(CCO)CC4)c(=O)c2cc1OC)-c1cc2c(cc1C3=O)OCO2`, the GI50 was 10.1 µM in the test on HOP-62 NSCLC; more than 34.2 µM in the test on IGROV1 ovarian; 3.72 µM in the test with LOX IMVI melanoma; 13.2 µM in the test on OVCAR-3 ovarian; 15.9 µM in the test on OVCAR-4 ovarian; 19.9 µM in the test on OVCAR-5 ovarian. The GI50 with SK-OV-3 ovarian was 21.1 µM. Besides, the TGI in the test with HOP-62 NSCLC is 54 µM; in the test with IGROV1 ovarian, more than 50.9 µM; in the test with LOX IMVI melanoma, 8.77 µM; with OVCAR-3 ovarian it was 28.3 µM; in the test with OVCAR-4 ovarian it was more than 50.7 µM; in the test on OVCAR-5 ovarian it was 40.9 µM. The compound also gave a TGI in the test on SK-OV-3 ovarian of more than 78.9 µM.
For `O=[N+]([O-])c1ccc2nc(=S)[nH]n2c1`, the TGI in the test on EKVX NSCLC, in the test on HOP-62 NSCLC, in the test with IGROV1 ovarian, in the test on LOX IMVI melanoma, with OVCAR-4 ovarian and in the test with OVCAR-5 ovarian was more than 100 µM throughout. In the test on SK-OV-3 ovarian, the TGI was more than 100 µM.
As to `CC1CC2(C)CC(=O)C1C1C(=O)N(CCN3CCOCC3)C(=O)C12` (stereo not drawn), the GI50 in the test on EKVX NSCLC, with HOP-62 NSCLC, in the test with IGROV1 ovarian, with LOX IMVI melanoma, in the test on OVCAR-4 ovarian and with OVCAR-5 ovarian was more than 100 µM each time. In addition, the GI50 in the test with SK-OV-3 ovarian was more than 100 µM. Also, the TGI with EKVX NSCLC, with HOP-62 NSCLC, with IGROV1 ovarian, with LOX IMVI melanoma, in the test with OVCAR-4 ovarian and in the test on OVCAR-5 ovarian was more than 100 µM each time. In the test on SK-OV-3 ovarian, this compound came in with a TGI of more than 100 µM.
